Our source for the LD50 and inhibition in vivo values is patent US4271193A, “N1-Benzoyl-N2-phenyldiaminopropanols and pharmaceutical compositions thereof, and processes for their preparation” (Kali-Chemie Pharma GmbH, priority 1978, dated 1981).

The nature of data set [1]: Acute 7-day toxicity after single application per os. The settings on record: mouse, in vivo, po, white NMRI-mice, not fed. How it is done:
The acute 7-day toxicity is determined after a single application per os in white NMRI-mice which had not been fed. The calculation of the LD50 is carried out by probitananalysis by means of electronic data processing (see L. Cavalli-Sforza, Gustav Fischer-Verlag, Stuttgart (1964), Grundbegriffe der Biometrie, p. 153).

For a further data set, the system named is stomach epithelium cells. As to the kind of experiment: Inhibition of acetylsalicylic acid-induced loss of stomach epithelium cells. Format: in vivo. The note with it: Rattus norvegicus; narcotized male SIV50 rats; acetylsalicylic acid as irritant; 3 times 300 mg/kg test compound orally beforehand; read-out: % reduction of loss of epithelium cells in the stomach. How it is done: 2. Inhibition of loss of stomach epithelium cells
The test compound is orally administered to narcotized male rats of the breed SIV50 prior to the beginning of the test. […] In order to determine the induced total loss of cells in the rats stomach, acetylsalicylic acid is administered to animals without prior administration of a protective compound.
In order to prepare the animals for the determination, the trachea is laid free and a tube introduced therein. Subsequently, a laparotomy in the medial part, displacement of the stomach and introducing and fixing of a vein-catheter for recovering stomach juices are effected. By means of the introduced vein-catheter, stomach juice is recovered and then is centrifuged and microscopically analyzed.
The percent reduction of loss of cells induced by the acetylsalicylic acid after previous administration of 3 times 300 mg/kg of the test compound is determined.

Molecules are shown by their SMILES.

Broadly, the LD50 is the dose expected to kill half of the subjects tested. Regarding `COc1cc(C(=O)NCC(O)CN(C)c2ccc(F)cc2)cc(OC)c1OC` (stereo not drawn) [A], the 50% lethal dose (LD50) at 168 h in data set [1] was 5010 mg/kg. In addition, the inhibition in vivo at 300 mg/kg with stomach epithelium cells stood at 53%.

`COc1cc(C(=O)NCC(O)CN(C)c2ccc(Cl)cc2)cc(OC)c1OC` (stereo not drawn) [B] yielded an LD50 at 168 h in data set [1] of over 5000 mg/kg. In the data set with stomach epithelium cells, the inhibition in vivo at 300 mg/kg was 77%.

`COc1cc(C(=O)NCC(O)CN(C)c2ccc(C(F)(F)F)cc2)cc(OC)c1OC` (stereo not drawn) [C] showed an LD50 at 168 h in data set [1] of over 1390 mg/kg. The inhibition in vivo at 300 mg/kg in the data set on stomach epithelium cells came out at 47.8%.

The compound `COc1cc(C(=O)NCC(O)CN(C)c2ccc(C)cc2)cc(OC)c1OC` (stereo not drawn) [D] displayed an LD50 at 168 h in data set [1] of over 3160 mg/kg. Besides, the inhibition in vivo at 300 mg/kg in the data set on stomach epithelium cells turned out to be 47.8%.

`CCN(CC(O)CNC(=O)c1cc(OC)c(OC)c(OC)c1)c1ccc(F)cc1` (stereo not drawn) [E] had an LD50 at 168 h in data set [1] of over 1280 mg/kg. Besides, in the data set with stomach epithelium cells, the inhibition in vivo at 300 mg/kg is 43%.

In data set [1], `COc1cc(C(=O)NCC(O)CNc2c(C)cc(C)cc2C)cc(OC)c1OC` (stereo not drawn) [F] came in with an LD50 at 168 h of over 1270 mg/kg. Moreover, the inhibition in vivo at 300 mg/kg with stomach epithelium cells is 28.4%.

In turn, `CCOc1cc(C(=O)NCC(O)CN(C)c2ccc(F)cc2)cc(OCC)c1OCC` (stereo not drawn) [G] returned an LD50 at 168 h in data set [1] of over 1370 mg/kg. Further, the inhibition in vivo at 300 mg/kg with stomach epithelium cells came to 63%.

`COc1ccc(C(=O)NCC(O)CN(C)c2ccc(F)cc2)c2c1OCCO2` (stereo not drawn) [H]: the LD50 at 168 h in data set [1] is over 1230 mg/kg. In addition, in the data set with stomach epithelium cells, the inhibition in vivo at 300 mg/kg worked out at 48.6%.

Turning to `CCCCOc1c(OC)cc(C(=O)NCC(O)CN(C)c2ccc(F)cc2)cc1OC` (stereo not drawn) [I], the LD50 at 168 h in data set [1] is over 1370 mg/kg. In addition, in the data set on stomach epithelium cells, the inhibition in vivo at 300 mg/kg was determined as 27.2%.
